Results on 34 compounds are retold here after US20120010075A1 (priority 2009, published 2012).

Data set [1] concerns Phytophthora infestans. It counts as in vivo, Phytophthora infestans on tomato. As to conditions: hydrazone 50 ppm with 50 μM CuCl2.2H2O, applied 24 h before inoculation; assessed 7 days after inoculation; tomato late blight.
Data set [2] deals with Leptosphaeria nodorum (LEPTNO). As to the kind of experiment: In vitro fungitoxicity of hydrazones with and without copper towards Leptosphaeria nodorum (Example 26). It is filed as cell-based. The settings on record: test compound Concn. 0.05 μg/mL, 72 h at 25° C.; for inhibition of growth at 0.05 µg/mL: Parastagonospora nodorum, 72 h, copper-minus medium, read-out: LEPTNO % Inhn. Minus Copper Observed; for LEPTNO % Inhn. Plus Copper Observed: copper-plus medium (CuCl2 10 μM).

Turning to `C/C(=N\NC(=O)c1ccc(C(F)(F)F)cc1)c1cc(Cl)cc(Cl)c1O` [Example 470], the melting point was in the range of 237 to 238 °C. For the same compound, in data set [1], the “TLB % Control” value is 93.0%. In data set [2], the inhibition of growth at 0.05 µg/mL is 4% and the “LEPTNO % Inhn. Plus Copper Observed” value worked out at 98.0%.
Taken in the same sequence, the figures for `C/C(=N\NC(=O)c1ccccc1O)c1cc(Cl)cc(Cl)c1O` [Example 471] were 306 to 308 °C, 83.0%, 7.9% and 97.8%.
`COc1ccc(/C(C)=N/NC(=O)c2ccc(C(F)(F)F)cc2)c(O)c1` [Example 472] had a melting point of 251 to 252 °C. Besides, the “TLB % Control” value in data set [1] was determined as 49.0%. In data set [2], the inhibition of growth at 0.05 µg/mL worked out at 0% and the “LEPTNO % Inhn. Plus Copper Observed” value is reported as 97.7%.
Taken in the same sequence, the figures for `COc1ccc(/C(C)=N/NC(=O)c2ccccc2O)c(O)c1` [Example 473] were 276 to 278 °C, 78.0%, 0% and 97.5%.
Taken in the same sequence, the figures for `O=C(N/N=C/c1cc(Cl)cc(Cl)c1O)c1ccc(Cl)cc1O` [Example 474] were 276 to 279 °C, 100.0%, 39.2% and 97.6%.
Taken in the same sequence, the figures for `O=C(N/N=C/c1cc(Cl)cc(Cl)c1O)c1cc(Cl)ccc1O` [Example 475] were 287 to 292 °C, 100.0%, 33.8% and 97.1%.
The compound `COc1ccc(/C(C)=N/NC(=O)c2ccccc2Br)c(O)c1` [Example 476] had a melting point of 205 to 206 °C. Further, the “TLB % Control” value in data set [1] is reported as 69.0%. In data set [2], the inhibition of growth at 0.05 µg/mL turned out to be 0% and the “LEPTNO % Inhn. Plus Copper Observed” value amounted to 93.9%.
Take `COc1ccc(C(=O)N/N=C(\C)c2cc(Cl)cc(Cl)c2O)c(O)c1` [Example 477]: the melting point lay in the range of 310 to 312 °C. Besides, the “TLB % Control” value in data set [1] turned out to be 93.0%. In addition, in data set [2], the inhibition of growth at 0.05 µg/mL is 6.2% and the “LEPTNO % Inhn. Plus Copper Observed” value amounted to 83.4%.
Taken in the same sequence, the figures for `COc1ccc(O)c(C(=O)N/N=C(\C)c2cc(Cl)cc(Cl)c2O)c1` [Example 478] were 327 to 331 °C, 65.0%, 0.7% and 94.7%.
Taken in the same sequence, the figures for `C/C(=N\NC(=O)c1c(C)cccc1O)c1cc(Cl)cc(Cl)c1O` [Example 479] were 245 °C, 97.0%, 0% and 97.5%.
Taken in the same sequence, the figures for `C/C(=N\NC(=O)c1cccc(Cl)c1O)c1cc(Cl)cc(Cl)c1O` [Example 481] were 260 to 262 °C, 76.0%, 10.3% and 97.8%.
`COc1ccc(C(=O)N/N=C(\C)c2ccc(OC)cc2O)cc1` [Example 482] showed a melting point of 226 to 227 °C. Besides, the “TLB % Control” value in data set [1] was found to be 66.0%. Further, in data set [2], the inhibition of growth at 0.05 µg/mL worked out at 0% and the “LEPTNO % Inhn. Plus Copper Observed” value is reported as 96.4%.
Taken in the same sequence, the figures for `COc1ccc(/C(C)=N/NC(=O)c2ccc(Br)cc2)c(O)c1` [Example 483] were 239 to 241 °C, 63.0%, 0% and 97.9%.
Taken in the same sequence, the figures for `COc1cccc(C(=O)N/N=C(\C)c2cc(Cl)cc(Cl)c2O)c1O` [Example 484] were 258 to 259 °C, 88.0%, 12.6% and 93.2%.
Taken in the same sequence, the figures for `Cc1cccc(O)c1C(=O)N/N=C/c1cc(Cl)cc(Cl)c1O` [Example 485] were 217 to 219 °C, 95.0%, 8% and 96.7%.
Compound `COc1ccc(C(=O)N/N=C/c2cc(Cl)cc(Cl)c2O)c(O)c1` [Example 486] came in with a melting point of 267 to 269 °C. In addition, in data set [1], the “TLB % Control” value was 95.0%. For the same compound, in data set [2], the inhibition of growth at 0.05 µg/mL turned out to be 12.8% and the “LEPTNO % Inhn. Plus Copper Observed” value was 96.6%.
Taken in the same sequence, the figures for `COc1ccc(O)c(C(=O)N/N=C/c2cc(Cl)cc(Cl)c2O)c1` [Example 487] were 250 to 252 °C, 100.0%, 11.2% and 93.9%.
Taken in the same sequence, the figures for `O=C(N/N=C/c1cc(Cl)cc(Cl)c1O)c1ccc2ccccc2c1O` [Example 488] were 276 to 278 °C, 72.0%, 20.1% and 92.6%.
Taken in the same sequence, the figures for `C/C(=N\NC(=O)c1ccc(Cl)cc1O)c1cc(Cl)cc(Cl)c1O` [Example 489] were 314 to 317 °C, 85.0%, 15.8% and 97.8%.
On to `C/C(=N\NC(=O)c1cc(Cl)ccc1O)c1cc(Cl)cc(Cl)c1O` [Example 490], for which the melting point lay in the range of 322 to 325 °C. The “TLB % Control” value in data set [1] stood at 55.0%. Also, in data set [2], the inhibition of growth at 0.05 µg/mL was found to be 31.5% and the “LEPTNO % Inhn. Plus Copper Observed” value is given as 97.0%.
Taken in the same sequence, the figures for `C/C(=N\NC(=O)c1ccc(C)cc1O)c1cc(Cl)cc(Cl)c1O` [Example 491] were 320 to 323 °C, 75.0%, 25% and 97.5%.
Taken in the same sequence, the figures for `C/C(=N\NC(=O)c1ccccc1)c1cccc(Cl)c1O` [Example 492] were 202 to 203 °C, 93.0%, 0% and 98.1%.
Taken in the same sequence, the figures for `C/C(=N\NC(=O)c1ccccc1C)c1cccc(Cl)c1O` [Example 493] were 193 to 198 °C, 95.0%, 0% and 97.8%.
Regarding `C/C(=N\NC(=O)c1cccc(C)c1)c1cccc(Cl)c1O` [Example 494], the melting point was in the range of 164 to 178 °C. For the same compound, the “TLB % Control” value in data set [1] came to 96.0%. Besides, in data set [2], the inhibition of growth at 0.05 µg/mL turned out to be 0% and the “LEPTNO % Inhn. Plus Copper Observed” value was 97.7%.
Taken in the same sequence, the figures for `C/C(=N\NC(=O)c1ccc(C)cc1)c1cccc(Cl)c1O` [Example 495] were 195 to 200 °C, 91.0%, 0% and 97.3%.
Taken in the same sequence, the figures for `C/C(=N\NC(=O)c1ccccc1Cl)c1cccc(Cl)c1O` [Example 496] were 189 to 193 °C, 94.0%, 0.7% and 97.8%.
`C/C(=N\NC(=O)c1cccc(Cl)c1)c1cccc(Cl)c1O` [Example 497] had a melting point of 197 to 219 °C. The “TLB % Control” value in data set [1] came out at 75.0%. For the same compound, in data set [2], the inhibition of growth at 0.05 µg/mL was 0% and the “LEPTNO % Inhn. Plus Copper Observed” value was determined as 98.1%.
Taken in the same sequence, the figures for `C/C(=N\NC(=O)c1ccc(Cl)cc1)c1cccc(Cl)c1O` [Example 498] were 208 to 209 °C, 85.0%, 0% and 97.5%.
Regarding `COc1ccc(C(=O)N/N=C(\C)c2cccc(Cl)c2O)cc1` [Example 499], the melting point was in the range of 203 to 204 °C. The “TLB % Control” value in data set [1] is 85.0%. In data set [2], the inhibition of growth at 0.05 µg/mL was found to be 0% and the “LEPTNO % Inhn. Plus Copper Observed” value is given as 97.4%.
Taken in the same sequence, the figures for `C/C(=N\NC(=O)c1ccc(Br)cc1)c1cccc(Cl)c1O` [Example 500] were 226 to 232 °C, 80.0%, 9.2% and 93.2%.
Taken in the same sequence, the figures for `C/C(=N\NC(=O)c1ccc(C(F)(F)F)cc1)c1cccc(Cl)c1O` [Example 501] were 250 to 256 °C, 89.0%, 0.5% and 98.0%.
Taken in the same sequence, the figures for `C/C(=N\NC(=O)c1ccccc1Br)c1cccc(Cl)c1O` [Example 502] were 178 to 183 °C, 85.0%, 4.2% and 97.2%.
Turning to `C/C(=N\NC(=O)c1ccccc1O)c1cccc(Cl)c1O` [Example 503], the melting point fell in the range of 283 to 287 °C. In addition, in data set [1], the “TLB % Control” value is reported as 66.0%. Moreover, in data set [2], the inhibition of growth at 0.05 µg/mL is 5.2% and the “LEPTNO % Inhn. Plus Copper Observed” value is reported as 97.0%.
Taken in the same sequence, the figures for `C/C(=N\NC(=O)c1ccccc1C)c1cc(Cl)ccc1O` [Example 505] were 192 to 193 °C, 46.0%, 7.1% and 97.3%.

Broadly, the melting point is the temperature of the solid-liquid transition.
